Our source for the IC50 values is patent publication US8791264B2 (Purdue Pharma L.P., priority 2006, dated 2014).

In test [1] the target is T1, N-type calcium channel (NTCC) (Homo sapiens, UniProt Q00975).
T1 construct: host or cells: IMR32 cells differentiated with dibutyryl cAMP and bromodeoxyuridine
As to the kind of experiment: FLIPR calcium mobilization assay for N-type calcium channel. Conditions: calcium mobilization in vitro assay; differentiated IMR32 cells. The class given is cell-based. The method, boiled down:
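Differentiated IMR32 cells (8 days, dibutyryl cAMP and BrdU) loaded with 3 μM Fluo-4 during 90 mM KCl pre-stimulation, with compound at about 846 pM to 17 μM plus 5 μM nitrendipine. After washes in compound, FLIPR read basal fluorescence 315 s, then 45 s after KCl addition (final 90 mM).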
A general note: A change in cytosolic calcium serves as a functional read-out for many receptors and channels.

In test [2] the target is T2, recombinant rat L-type calcium channel (LTCC) subunits (α1c, α2δ, and β1) (Rattus norvegicus, UniProt P22002).
T2 construct: expressed in transfected cells
T2 sequence (P22002 whole entry): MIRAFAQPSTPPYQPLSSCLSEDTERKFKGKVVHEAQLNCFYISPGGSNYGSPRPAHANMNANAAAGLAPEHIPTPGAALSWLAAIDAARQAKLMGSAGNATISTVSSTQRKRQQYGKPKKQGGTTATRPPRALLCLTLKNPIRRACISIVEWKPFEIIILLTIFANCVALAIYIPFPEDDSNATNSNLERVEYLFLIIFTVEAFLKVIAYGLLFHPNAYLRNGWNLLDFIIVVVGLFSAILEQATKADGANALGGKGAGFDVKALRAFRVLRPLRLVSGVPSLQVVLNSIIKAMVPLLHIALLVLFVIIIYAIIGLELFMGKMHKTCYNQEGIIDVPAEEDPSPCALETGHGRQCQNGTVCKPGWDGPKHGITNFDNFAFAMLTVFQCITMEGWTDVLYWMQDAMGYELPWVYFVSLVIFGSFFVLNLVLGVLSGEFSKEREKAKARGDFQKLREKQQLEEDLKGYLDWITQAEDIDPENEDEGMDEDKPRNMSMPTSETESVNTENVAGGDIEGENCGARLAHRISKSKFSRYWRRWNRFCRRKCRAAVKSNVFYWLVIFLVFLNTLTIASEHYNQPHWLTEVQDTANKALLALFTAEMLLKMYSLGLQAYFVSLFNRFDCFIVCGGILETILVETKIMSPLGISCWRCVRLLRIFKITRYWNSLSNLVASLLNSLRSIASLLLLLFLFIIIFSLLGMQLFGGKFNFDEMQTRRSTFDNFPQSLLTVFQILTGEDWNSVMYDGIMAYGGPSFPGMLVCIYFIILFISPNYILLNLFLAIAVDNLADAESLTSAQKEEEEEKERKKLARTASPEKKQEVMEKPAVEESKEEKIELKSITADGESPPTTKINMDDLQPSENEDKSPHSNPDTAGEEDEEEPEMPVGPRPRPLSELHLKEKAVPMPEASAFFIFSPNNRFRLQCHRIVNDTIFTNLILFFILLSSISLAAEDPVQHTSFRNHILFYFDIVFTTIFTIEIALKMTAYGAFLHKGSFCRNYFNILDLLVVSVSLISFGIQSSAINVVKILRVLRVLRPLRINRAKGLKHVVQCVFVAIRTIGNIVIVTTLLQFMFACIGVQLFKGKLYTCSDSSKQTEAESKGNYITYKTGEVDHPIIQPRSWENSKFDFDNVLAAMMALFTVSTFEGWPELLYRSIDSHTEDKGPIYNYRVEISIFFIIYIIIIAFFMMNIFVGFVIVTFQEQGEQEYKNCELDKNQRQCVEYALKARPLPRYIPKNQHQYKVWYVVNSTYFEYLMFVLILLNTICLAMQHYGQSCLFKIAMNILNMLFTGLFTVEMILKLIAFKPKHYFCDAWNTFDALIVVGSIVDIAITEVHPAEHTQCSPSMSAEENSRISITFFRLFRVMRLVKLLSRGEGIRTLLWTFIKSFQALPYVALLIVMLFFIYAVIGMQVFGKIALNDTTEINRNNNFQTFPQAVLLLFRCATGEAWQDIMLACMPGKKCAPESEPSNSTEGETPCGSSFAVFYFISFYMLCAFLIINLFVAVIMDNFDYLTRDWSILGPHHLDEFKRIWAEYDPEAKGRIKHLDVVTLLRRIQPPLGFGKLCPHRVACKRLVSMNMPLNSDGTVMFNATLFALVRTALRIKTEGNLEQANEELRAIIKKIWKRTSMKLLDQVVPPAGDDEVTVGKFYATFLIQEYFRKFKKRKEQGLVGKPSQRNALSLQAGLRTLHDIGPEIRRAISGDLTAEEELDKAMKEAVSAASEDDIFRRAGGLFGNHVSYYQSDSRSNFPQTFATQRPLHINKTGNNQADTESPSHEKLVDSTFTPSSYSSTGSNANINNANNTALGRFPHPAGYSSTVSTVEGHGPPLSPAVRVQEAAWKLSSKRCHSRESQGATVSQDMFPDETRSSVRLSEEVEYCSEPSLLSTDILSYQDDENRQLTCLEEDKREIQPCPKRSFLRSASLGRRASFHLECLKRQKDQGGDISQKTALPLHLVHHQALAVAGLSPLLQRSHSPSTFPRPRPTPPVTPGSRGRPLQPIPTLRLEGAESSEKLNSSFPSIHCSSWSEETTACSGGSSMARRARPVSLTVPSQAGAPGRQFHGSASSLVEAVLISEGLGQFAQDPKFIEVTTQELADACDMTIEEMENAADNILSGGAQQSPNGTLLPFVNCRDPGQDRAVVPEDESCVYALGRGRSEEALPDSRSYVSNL
T2 sequence (P54290 25-944 partner limits assumed): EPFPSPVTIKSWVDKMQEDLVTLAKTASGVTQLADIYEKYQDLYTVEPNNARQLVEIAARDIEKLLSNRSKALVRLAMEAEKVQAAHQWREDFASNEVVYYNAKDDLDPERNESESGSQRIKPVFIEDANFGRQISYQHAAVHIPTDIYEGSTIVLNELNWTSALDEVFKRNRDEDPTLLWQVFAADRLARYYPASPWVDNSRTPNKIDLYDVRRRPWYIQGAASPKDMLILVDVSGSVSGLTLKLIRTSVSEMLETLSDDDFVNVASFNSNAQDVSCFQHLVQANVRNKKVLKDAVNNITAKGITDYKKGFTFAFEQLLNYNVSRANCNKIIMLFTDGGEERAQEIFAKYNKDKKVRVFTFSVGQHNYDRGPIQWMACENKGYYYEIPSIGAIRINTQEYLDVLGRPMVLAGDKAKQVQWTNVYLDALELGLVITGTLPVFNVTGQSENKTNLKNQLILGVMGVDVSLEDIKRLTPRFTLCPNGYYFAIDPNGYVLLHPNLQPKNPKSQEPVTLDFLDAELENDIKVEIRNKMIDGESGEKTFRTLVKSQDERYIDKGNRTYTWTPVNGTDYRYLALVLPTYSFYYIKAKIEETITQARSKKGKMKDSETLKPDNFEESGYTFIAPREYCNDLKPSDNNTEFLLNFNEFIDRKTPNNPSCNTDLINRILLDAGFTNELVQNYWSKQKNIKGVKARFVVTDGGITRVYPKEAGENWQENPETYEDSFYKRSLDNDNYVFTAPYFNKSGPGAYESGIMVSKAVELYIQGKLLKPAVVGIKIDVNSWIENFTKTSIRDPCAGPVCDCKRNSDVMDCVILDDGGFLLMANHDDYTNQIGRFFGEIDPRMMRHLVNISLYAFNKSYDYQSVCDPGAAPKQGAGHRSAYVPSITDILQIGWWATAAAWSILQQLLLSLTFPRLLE
T2 sequence (P54290 945-1091 partner limits assumed): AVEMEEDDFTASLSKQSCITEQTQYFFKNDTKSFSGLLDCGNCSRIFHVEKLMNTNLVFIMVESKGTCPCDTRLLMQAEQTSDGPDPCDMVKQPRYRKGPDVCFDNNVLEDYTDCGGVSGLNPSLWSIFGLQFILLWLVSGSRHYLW
T2 sequence (P54283 whole entry partner): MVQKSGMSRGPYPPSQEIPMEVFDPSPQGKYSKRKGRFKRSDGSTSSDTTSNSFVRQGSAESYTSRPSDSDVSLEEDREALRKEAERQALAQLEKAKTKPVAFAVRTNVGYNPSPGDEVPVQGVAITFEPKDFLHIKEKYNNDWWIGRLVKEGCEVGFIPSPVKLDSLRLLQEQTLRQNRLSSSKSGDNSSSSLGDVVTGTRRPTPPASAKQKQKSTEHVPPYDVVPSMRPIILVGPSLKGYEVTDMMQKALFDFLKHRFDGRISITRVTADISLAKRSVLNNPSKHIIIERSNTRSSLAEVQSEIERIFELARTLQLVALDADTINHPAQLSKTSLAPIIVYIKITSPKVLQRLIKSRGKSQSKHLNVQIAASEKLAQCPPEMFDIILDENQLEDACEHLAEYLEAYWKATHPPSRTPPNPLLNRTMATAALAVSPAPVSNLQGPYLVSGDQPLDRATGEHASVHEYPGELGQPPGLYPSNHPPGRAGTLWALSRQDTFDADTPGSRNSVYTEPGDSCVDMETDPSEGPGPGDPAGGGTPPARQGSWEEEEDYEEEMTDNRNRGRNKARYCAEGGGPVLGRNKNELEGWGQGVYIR
As to the kind of experiment: FLIPR calcium mobilization assay for L-type calcium channel. Conditions: calcium mobilization in vitro assay; HEK293 cells expressing rat LTCC. The class given is cell-based. The method, boiled down:
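HEK293 cells stably expressing rat LTCC (α1c, α2δ, β1), Fluo-4 loaded in pH 7.4 buffer with 5 mM CaCl2. Compound (about 846 pM to 17 μM final) applied 5 minutes before depolarization with 90 mM KCl final; FLIPR fluorescence recorded throughout.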

A value given as a limit tells only on which side of the number the result lay.

Take `CC(C)CNC(=O)CN1CCC(N(C(C)C)S(=O)(=O)c2cccc(C(F)(F)F)c2)CC1` [Compound 34, N-Isobutyl-2-{4-[isopropyl-(3-trifluoromethylbenzenesulfonyl)amino]-piperidin-1-yl}-acetamide]: the IC50 (usually the midpoint of a concentration-inhibition curve) in test [1] amounted to 0.32 µM; in test [2], 9.08 µM.

Turning to `O=C(CN1CCC(N(C2CC2)S(=O)(=O)c2cccc(Cl)c2)CC1)Nc1ccc(F)cc1` [Compound 50, 2-{4-[(3-Chlorobenzenesulfonyl)cyclopropylamino]-piperidin-1-yl}-N-(4-fluorophenyl)acetamide], the IC50 in test [1] was 0.84 µM; in test [2] it was 10 to 20 µM.

`CC(C)(C)c1ccc(NC(=O)CN2CCC(N(C3CC3)S(=O)(=O)c3cccc(C(F)(F)F)c3)CC2)cc1` [Compound 56]: the IC50 in test [1] is 0.76 µM; in test [2], more than 20 µM.

Turning to `CC(C)N(C1CCN(C(=O)CNCc2ccccc2)CC1)S(=O)(=O)c1cccc(C(F)(F)F)c1` [Compound 93, N-[1-(2-Benzylaminoacetyl)-piperidin-4-yl]-N-isopropyl-3-trifluoromethylbenzenesulfonamide], the IC50 in test [1] was 0.56 µM; in test [2] it was 10 to 20 µM.

`CC(C)N(C1CCN(CCC(=O)Nc2ccc(F)cc2)CC1)S(=O)(=O)c1cccc(C(F)(F)F)c1` [Compound 107a, N-(4-Fluorophenyl)-3-{4-[isopropyl-(3-trifluoromethylbenzenesulfonyl)amino]-piperidin-1-yl}-propionamide]: the IC50 in test [1] was 0.57 µM; in test [2], 9.75 µM.

For `CC(C)N(C1CCN(C(=O)CNCC2CCCCC2)CC1)S(=O)(=O)c1cccc(C(F)(F)F)c1` [Compound 102, N-{1-[2-(Cyclohexylmethylamino)acetyl]-piperidin-4-yl}-N-isopropyl-3-trifluoromethylbenzenesulfonamide], the figures for the IC50 in test [1] and in test [2] were 0.22 µM and more than 20 µM, respectively.

Regarding `COc1cccc(NCCC(=O)N2CCC(N(C(C)C)S(=O)(=O)c3cccc(C(F)(F)F)c3)CC2)c1` [N-isopropyl-N-{1-[3-(3-methoxy-phenylamino)-propionyl]-piperidin-4-yl}-3-trifluoromethyl-benzenesulfonamide], the IC50 in test [1] was 0.42 µM; in test [2], 10 to 20 µM.

For the molecule `CN(C1CCN(CC(=O)Nc2ccc(F)cc2)CC1)S(=O)(=O)c1cccc(C(F)(F)F)c1` [Compound 51, N-(4-Fluorophenyl)-2-{4-[methyl-(3-trifluoromethylbenzenesulfonyl)-amino]-piperidin-1-yl}-acetamide], the IC50 is 0.7 µM in test [1] and more than 20 µM in test [2].

For `COc1cc(NCCC(=O)N2CCC(N(C(C)C)S(=O)(=O)c3cccc(C(F)(F)F)c3)CC2)cc(OC)c1` [N-{1-[3-(3,5-dimethoxy-phenylamino)-propionyl]-piperidin-4-yl}-N-isopropyl-3-trifluoromethyl-benzenesulfonamide], the IC50 in test [1] is 0.82 µM; in test [2] it was more than 20 µM.

Take `COc1ccc(CNCC(=O)N2CCC(N(C3CC3)S(=O)(=O)c3cccc(C(F)(F)F)c3)CC2)cc1` [Compound 99, N-Cyclopropyl-N-{1-[2-(4-methoxybenzylamino)acetyl]-piperidin-4-yl}-3-trifluoromethylbenzenesulfonamide]: the figures for the IC50 in test [1] and in test [2] were 0.35 µM and more than 20 µM, respectively.

Take `COc1ccc(CNCC(=O)N2CCC(N(C3CC3)S(=O)(=O)c3ccc(Cl)cc3)CC2)cc1` [Compound 100, 4-Chloro-N-cyclopropyl-N-{1-[2-(4-methoxybenzylamino)acetyl]-piperidin-4-yl}-benzenesulfonamide]: the IC50 was 0.66 µM in test [1] and 10 to 20 µM in test [2].

`CC(C)N(C1CCN(C(=O)CCN(C)Cc2ccccc2)CC1)S(=O)(=O)c1cccc(C(F)(F)F)c1` [N-{1-[3-(benzyl-methyl-amino)-propionyl]-piperidin-4-yl}-N-isopropyl-3-trifluoromethyl-benzenesulfonamide]: the IC50 came to 0.42 µM in test [1] and 7.48 µM in test [2].

Consider `CC(C)N(C1CCN(C(=O)CCNc2ccc(F)cc2F)CC1)S(=O)(=O)c1cccc(C(F)(F)F)c1` [N-{1-[3-(2,4-difluoro-phenylamino)-propionyl]-piperidin-4-yl}-N-isopropyl-3-trifluoromethyl-benzenesulfonamide], for which the IC50 in test [1] was 0.83 µM; in test [2], more than 20 µM.

Regarding `CC(C)N(C1CCN(CCCN(c2ccc(F)cc2)c2ccc(F)cc2)CC1)S(=O)(=O)c1cccc(C(F)(F)F)c1` [Compound 8, N-(1-{3-[Bis(4-fluorophenyl)amino]propyl}piperidin-4-yl)-N-isopropyl-3-trifluoromethylbenzenesulfonamide], the values for the IC50 in test [1] and in test [2] were 0.62 µM and more than 20 µM, respectively.

For `COc1cccc(NCCC(=O)N2CCC(N(C(C)C)S(=O)(=O)c3cccc(C(F)(F)F)c3)CC2)c1OC` [N-{1-[3-(2,3-dimethoxy-phenylamino)-propionyl]-piperidin-4-yl}-N-isopropyl-3-trifluoromethyl-benzenesulfonamide], the IC50 is 0.31 µM in test [1] and 10 to 20 µM in test [2].

In the case of `COc1cc(NCCC(=O)N2CCC(N(C(C)C)S(=O)(=O)c3cccc(C(F)(F)F)c3)CC2)ccc1F` [N-{1-[3-(4-fluoro-3-methoxy-phenylamino)-propionyl]-piperidin-4-yl}-N-isopropyl-3-trifluoromethyl-benzenesulfonamide], the IC50 is 0.62 µM in test [1] and more than 20 µM in test [2].

For `O=C(CN1CCC(N(C2CC2)S(=O)(=O)c2cccc(C(F)(F)F)c2)CC1)Nc1cc(Cl)cc(Cl)c1` [Compound 79, 2-{4-[Cyclopropyl-(3-trifluoromethylbenzenesulfonyl)amino]-piperidin-1-yl}-N-(3,5-dichlorophenyl)-acetamide], the IC50 was 0.86 µM in test [1] and more than 20 µM in test [2].

As for `CC(C)N(C1CCN(C(=O)CCNc2cccc(Cl)c2)CC1)S(=O)(=O)c1cccc(C(F)(F)F)c1` [N-{1-[3-(3-chloro-phenylamino)-propionyl]-piperidin-4-yl}-N-isopropyl-3-trifluoromethyl-benzenesulfonamide], the results for the IC50 in test [1] and in test [2] were 0.9 µM and more than 20 µM, respectively.

As to `COc1ccccc1CNCC(=O)N1CCC(N(C2CC2)S(=O)(=O)c2ccc(Cl)cc2)CC1` [Compound 101, 4-Chloro-N-cyclopropyl-N-{1-[2-(2-methoxybenzylamino)acetyl]-piperidin-4-yl}-benzenesulfonamide], the results for the IC50 in test [1] and in test [2] were 0.63 µM and 8.1 µM, respectively.

Turning to `CC(C)N(C1CCN(C(=O)CCNc2cccc(OC(F)(F)F)c2)CC1)S(=O)(=O)c1cccc(C(F)(F)F)c1` [N-isopropyl-N-{1-[3-(3-trifluoromethoxy-phenylamino)-propionyl]-piperidin-4-yl}-3-trifluoromethyl-benzenesulfonamide], the figures for the IC50 in test [1] and in test [2] were 0.77 µM and more than 20 µM, respectively.

Regarding `CC(C)N(C1CCN(CC(=O)Nc2ccc(F)cc2)CC1)S(=O)(=O)c1cccc(C(F)(F)F)c1` [Compound 44, N-(4-Fluorophenyl)-2-{4-[isopropyl-(3-trifluoromethylbenzenesulfonyl)amino]-piperidin-1-yl}-acetamide], the IC50 in test [1] was found to be 0.28 µM; in test [2], 2.68 µM.
